Measured values reported in patent US5604214A, “Reduction of boar odor in meat” (Pfizer Inc., priority 1993, dated 1997).

Test system: boar salivary gland steroid 5-α-reductase (boar 4-ene-5-α-reductase enzyme)
Assay: Boar steroid 5α-reductase enzyme activity and inhibitor potency assay ([14C]testosterone conversion, boar salivary gland microsomes)
Assay type: biochemical
Conditions: 500 nM compound, 37° C., 30 minutes
Experimental: Microsomal preparations from boar salivary glands were prepared by the protocol desbribed by Liang, et al. for human prostatic microsomal 5-α-reductase.
Assay for enzyme activity and inhibitor potency.
A constant amount of [^14 C]testosterone (50 to 55 mCi/mmol) in ethanol and varying amounts of potential inhibitor (or no inhibitor i.e. control) in ethanol were deposited in test tubes and concentrated to dryness in vacuo. Assays for boar steroid 5α-reductase enzyme were conducted with a sample of the boar salivary gland 5-α-reductase in 50 mM phosphate buffer, pH 7.5 or in 50 mM citrate buffer at pH 5.0. To each tube was added buffer, 40 μl of microsomal preparation from boar salivary glands (hereinafter boar salivary gland steroid 5-α-reductase) and 20 μl of 20 mM NADPH to a final volume of 0.5 mL.
After incubating the solution at 37° C. for 30 minutes the reaction was quenched by the addition of 4 mL ethyl acetate and 0.25 μmol each of testosterone, 5α-dihydrotestosterone, androstanediol, and androstanedione as carriers. The organic layer was removed to a second test tube and evaporated to dryness in a Speed Vac. The residue was dissolved in 40 μL chloroform, spotted on an individual lane of a 20×20 cm prechannelled silica gel TLC plate (Si 250F-PA, Baker Chemical) and developed twice with acetone:chloroform (1:9). The radiochemical content in the bands of the substrate and the products was determined with a BIOSCAN Imaging Scanner (Bioscan Inc., Washington, D.C.). The percent of recovered radiolabel converted to product was calculated, from which enzyme activity was determined. All incubations were conducted such that no more than 20% of the substrate (testosterone) was consumed.
By following the above procedure in the absence of an inhibitor (i.e. control) a significant formation of 5-α-dihydrotestosterone, and the androstanediols occurred which indicated the presence of a high level of 4-ene-5-α-reductase enzyme activity in the microsomes prepared from the salivary glands of the boar.

[1] = pH 7.5 (50 mM phosphate buffer)

SMILES | inhibition of the boar 5-α-reductase enzyme (vs. control) [1] | inhibition of the boar 5-α-reductase enzyme (vs. control) (pH 5 (50 mM citrate buffer))
CC(C)(C)NC(=O)[C@H]1CC[C@H]2[C@@H]3CC[C@H]4NC(=O)C=C[C@]4(C)[C@H]3CC[C@]12C [17β-(N-t-butylcarbamoyl)-4-aza-5α-androst-1-en-3-one] | 50% | –
CC(C)(C)NC(=O)[C@H]1CC[C@H]2[C@@H]3CC=C4C=C(C(=O)O)CC[C@]4(C)[C@H]3CC[C@]12C [17β-(N-t-butylcarboxamide)-androst-3,5-diene-3-carboxylic acid] | 50% | –
CC(C)(C)NC(=O)[C@H]1CC[C@H]2[C@@H]3CCc4cc(C(=O)O)ccc4[C@H]3CC[C@]12C [17β-(N-t-butylcarboxamide)-estr-1,3,5(10)triene-3-carboxylic acid] | 80% | ~65%
